Broadly, the EC50 is the midpoint of the concentration-response curve.

This assay can be described thus: -log concentration required to induce 50% maximum lipogenic activity against Peroxisome proliferator activated receptor gamma.
Turning to `Cc1cccc(C(=O)c2ccccc2NC(Cc2ccc(OCCN(C)c3nc4ccccc4o3)cc2)C(=O)O)c1` (stereo unspecified), the half-maximal effective concentration (EC50) is 14 nM.

`Cc1oc(-c2ccccc2)nc1CCOc1ccc(CC(Nc2ccccc2C(=O)c2ccc(CO)cc2)C(=O)O)cc1` (stereo unspecified) came in with an EC50 of 174 nM. `CNC(=O)c1ccccc1NC(Cc1ccc(OCCc2nc(-c3ccccc3)oc2C)cc1)C(=O)O` (stereo unspecified): the response was half-maximal at 363 nM (EC50).

Take `CN(CCOc1ccc(CC(Nc2ccccc2C(=O)c2ccc(-c3ccccc3)cc2)C(=O)O)cc1)c1nc2ccccc2o1` (stereo unspecified): the EC50 came out at 339 nM. The same measure for `Cc1oc(-c2ccccc2)nc1CCOc1ccc(CC(Nc2ccccc2C(=O)c2cccc(CN(C)C)c2)C(=O)O)cc1` (stereo unspecified): 1180 nM; for `Cc1oc(-c2ccccc2)nc1CCOc1ccc(CC(Nc2ccccc2C(=O)c2cccc(N)c2)C(=O)O)cc1` (stereo unspecified): 132 nM; for `Cc1oc(-c2ccccc2)nc1CCOc1ccc(CC(Nc2ccccc2C(=O)c2ccncc2)C(=O)O)cc1` (stereo unspecified): 107 nM. Take `CN(CCOc1ccc(CC(Nc2ccccc2C(=O)c2cccc3ccccc23)C(=O)O)cc1)c1nc2ccccc2o1` (stereo unspecified): the EC50 worked out at 2.7 nM.

The compound `COc1ccc(C(=O)c2ccccc2NC(Cc2ccc(OCCN(C)c3nc4ccccc4o3)cc2)C(=O)O)cc1` (stereo unspecified) had an EC50 of 95 nM.

For the compound `CN(CCOc1ccc(CC(Nc2ccncc2C(=O)c2ccccc2)C(=O)O)cc1)c1nc2ccccc2o1` (stereo unspecified), the EC50 amounted to 724 nM.

In turn, `Cc1oc(-c2ccccc2)nc1CCOc1ccc(CC(Nc2ccccc2C(=O)c2ccc(CN(C)C)cc2)C(=O)O)cc1` (stereo unspecified) gave an EC50 of 977 nM.

The compound `CCCOC(=O)c1ccccc1NC(Cc1ccc(OCCc2nc(-c3ccccc3)oc2C)cc1)C(=O)O` (stereo unspecified) had an EC50 of 13 nM.

`COc1ccccc1C(=O)c1ccccc1NC(Cc1ccc(OCCN(C)c2nc3ccccc3o2)cc1)C(=O)O` (stereo unspecified) gave an EC50 of 501 nM. Compound `Cc1ccccc1C(=O)c1ccccc1NC(Cc1ccc(OCCN(C)c2nc3ccccc3o2)cc1)C(=O)O` (stereo unspecified) registered an EC50 of 6.9 nM. The same measure for `CN(CCOc1ccc(CC(Nc2ccccc2C(=O)c2ccccc2)C(=O)O)cc1)c1nc2ccccc2o1` (stereo unspecified): 4.4 nM; for `CN(CCOc1ccc(CC(Nc2ccccc2C(=O)c2cccc(C(F)(F)F)c2)C(=O)O)cc1)c1nc2ccccc2o1` (stereo unspecified): 27 nM. Under `CN(CCOc1ccc(CC(Nc2ccccc2C(=O)c2cccc(OCc3ccccc3)c2)C(=O)O)cc1)c1nc2ccccc2o1` (stereo unspecified) stands 891 nM. The compound `CSc1nc(NC(Cc2ccc(OCCN(C)c3nc4ccccc4o3)cc2)C(=O)O)c(C(=O)c2ccccc2)s1` (stereo unspecified) showed an EC50 of less than 2510 nM. Under `CN(CCOc1ccc(CC(Nc2ccccc2C(=O)c2ccc(C(F)(F)F)cc2)C(=O)O)cc1)c1nc2ccccc2o1` (stereo unspecified) stands 69 nM; under `CN(CCOc1ccc(C[C@H](Nc2ccccc2C(=O)C2CCCCC2)C(=O)O)cc1)c1nc2ccccc2o1`, 8.5 nM; under `Cc1oc(-c2ccccc2)nc1CCOc1ccc(CC(Nc2ccccc2C(=O)OC(C)C)C(=O)O)cc1` (stereo unspecified), 3.2 nM. `CN(CCOc1ccc(CC(Nc2sccc2C(=O)c2ccccc2)C(=O)O)cc1)c1nc2ccccc2o1` (stereo unspecified) displayed an EC50 of 95 nM. Consider `Cc1oc(-c2ccccc2)nc1CCOc1ccc(CC(Nc2ccccc2C(=O)N(C)C)C(=O)O)cc1` (stereo unspecified), for which the EC50 is more than 1000 nM. In turn, `Cc1oc(-c2ccccc2)nc1CCOc1ccc(CC(Nc2ccccc2C(=O)c2cccc(CO)c2)C(=O)O)cc1` (stereo unspecified) yielded an EC50 of 759 nM. With `Cc1ccc(NC(Cc2ccc(OCCN(C)c3nc4ccccc4o3)cc2)C(=O)O)c(C(=O)c2ccccc2)c1` (stereo unspecified), it took 63 nM to reach a half-maximal effect (EC50). The compound `Cc1oc(-c2ccccc2)nc1CCOc1ccc(C[C@@H](Nc2ccccc2C(=O)C2CCCCC2)C(=O)O)cc1` returned an EC50 of 372 nM.

`CN(CCOc1ccc(CC(Nc2ccccc2C(=O)c2ccccc2C(F)(F)F)C(=O)O)cc1)c1nc2ccccc2o1` (stereo unspecified) gave an EC50 of 71 nM. Compound `Cc1oc(-c2ccccc2)nc1CCOc1ccc(CC(Nc2ccccc2C(=O)O)C(=O)O)cc1` (stereo unspecified) displayed an EC50 of more than 10000 nM. `CN(CCOc1ccc(CC(Nc2ccccc2C(=O)c2ccsc2)C(=O)O)cc1)c1nc2ccccc2o1` (stereo unspecified) registered an EC50 of 72 nM.

As to `CN(CCOc1ccc(CC(Nc2ccsc2C(=O)c2ccccc2)C(=O)O)cc1)c1nc2ccccc2o1` (stereo unspecified), it took 3.5 nM to reach a half-maximal effect (EC50). Compound `CN(CCOc1ccc(CC(Nc2ccccc2C(=O)C2CCCCCC2)C(=O)O)cc1)c1nc2ccccc2o1` (stereo unspecified) came in with an EC50 of 66 nM. The same measure for `CN(CCOc1ccc(CC(Nc2ccccc2C(=O)c2cccs2)C(=O)O)cc1)c1nc2ccccc2o1` (stereo unspecified): 78 nM. `CN(CCOc1ccc(CC(Nc2ccccc2C(=O)c2ccc(OCc3ccccc3)cc2)C(=O)O)cc1)c1nc2ccccc2o1` (stereo unspecified): the EC50 was found to be 676 nM. The same measure for `Cc1oc(-c2ccccc2)nc1CCOc1ccc(CC(Nc2ccccc2C(=O)c2cccc(C(=O)O)c2)C(=O)O)cc1` (stereo unspecified): 1580 nM; for `CN(CCOc1ccc(CC(Nc2cscc2C(=O)c2ccccc2)C(=O)O)cc1)c1nc2ccccc2o1` (stereo unspecified): 1.4 nM. `CN(CCOc1ccc(CC(Nc2ccccc2C(=O)C2CCCC2)C(=O)O)cc1)c1nc2ccccc2o1` (stereo unspecified) came in with an EC50 of 24 nM. `CCOC(=O)c1ccccc1NC(Cc1ccc(OCCc2nc(-c3ccccc3)oc2C)cc1)C(=O)O` (stereo unspecified) came in with an EC50 of 0.427 nM. The same measure for `CN(CCOc1ccc(CC(Nc2ccc(Cl)cc2C(=O)c2ccccc2)C(=O)O)cc1)c1nc2ccccc2o1` (stereo unspecified): 178 nM; for `Cc1ccc(C(=O)c2ccccc2NC(Cc2ccc(OCCN(C)c3nc4ccccc4o3)cc2)C(=O)O)cc1` (stereo unspecified): 12 nM. The same measure for `Cc1oc(-c2ccccc2)nc1CCOc1ccc(CC(Nc2ccccc2C(=O)c2cccnc2)C(=O)O)cc1` (stereo unspecified): 17 nM. Compound `COc1cccc(C(=O)c2ccccc2NC(Cc2ccc(OCCN(C)c3nc4ccccc4o3)cc2)C(=O)O)c1` (stereo unspecified) came in with an EC50 of 155 nM.

These data come from BindingDB's records for doi:10.1021/jm980414r (Glaxo Wellcome Research and Development, 1998).
